Measurements reported in paper PMC8361937, “Multifunctional Heterometallic Ir^III−Au^I Probes as Promising Anticancer and Antiangiogenic Agents” (Chemistry (Weinheim an Der Bergstrasse, Germany), 2021).
Read-outs that look alike come from different tables or passages of the source.

How the values were obtained:
A549 cells [1] = experiment: Cell death mechanism by Annexin V-DY634/7-AAD flow cytometry with or without Z-VAD-fmk; type: cell-based, human; conditions: 24 and 48 h, 30 μM Z‐VAD‐fmk
Procedure: For flow cytometry analysis, phosphatidylserine exposure on cell surface as an “early apoptosis” marker and cell membrane damage as necrosis indicator were evaluated with Annexin V‐DY634 (apoptosis) and the DNA‐labelling dye 7‐AAD (necrosis) staining. […] As shown in Figures 4 and S22 (top graphs), cells are distributed in three populations. Annexin V‐DY634‐only positive cells are indicative of an early apoptotic process, a 7‐AAD‐only labelled cell population represents exploded cells as a typical endpoint of necrotic cell death, and the doubly stained population implies that cells started being apoptotic and then eventually burst, a phenomenon known as “late apoptosis”. It is remarkable that late apoptosis state was easily reached at higher concentrations for both complexes. […] As both compounds activate apoptotic pathway, we wanted to unveil whether caspases were implicated in the cell death process by using the pan‐caspase inhibitor Z‐VAD‐fmk.
Cytotoxicity assays: Apoptotic and necrotic cell death was determined by measuring phosphatidylserine exposure on cell surface and cell membrane permeabilisation, respectively, in A549 cells. […] Cell death was analysed using CellQuest Pro (BD Biosciences), FlowJo 7.6.1 (Becton Dickinson (BD), USA) and GraphPad Prism 5 (GraphPad Software, USA) software.

A549 cells [2] = experiment: ROS production measurement (CellROX, flow cytometry); type: cell-based, human; conditions: 24 h, up to 80 % of IC50
Procedure: The generation of ROS was analysed by flow cytometry using a fluorogenic CellROX^TM assay kit. Complexes 1 and 4 were selected for the experiment to discriminate between the effects that might drive the presence of the gold fragment. […] Such increment might be in fact associated with the presence of the gold fragment as many reported gold species have shown to induce oxidative stress.[43] Therefore, this experiment seems to indicate that the introduction of the gold fragment activates to a higher extent the mechanisms of ROS generation in A549 cells.
ROS production measurement: 5×10^5 A549 cells/well were seeded in complete medium in flat‐bottom, 6‐well plates (3 mL/well) and allowed to attach for 24 h prior to addition of the compound. Complexes 1 and 4 were dissolved in DMSO and added to cells up to concentration of 80 % (IC50) in duplicate. Cells were incubated with the complexes for 24 h and subsequently, they were trypsinised and the CellROX®Green Flow cytometry assay kit (C10492) was used to evaluate the generation of ROS in a Gallios Flow Cytometer (Beckman Coulter) using Kaluza v2.1 software for data analysis.

A549 cells [3] = experiment: Mitochondrial transmembrane potential analysis (TMRE, flow cytometry); type: cell-based, human; conditions: 48 h
From the text: TMRE is a positively charged dye that accumulates in cells with active mitochondria as consequence of their net internal negative charge but several cell insults, including chemotherapeutic agents, lead to mitochondrial depolarisation and thus TMRE incorporation fails. A shift is seen in the pattern staining for complexes 1 (Figure S29) and 4 (Figure 13) in comparison with untreated cells and this overlaps with that seen when treating cells with S63845 (positive control), a selective inhibitor of the Mcl‐1 antiapoptotic protein involved in the regulation of the mitochondrial apoptotic pathway.
Mitochondrial transmembrane potential analysis: Integrity of the mitochondrial outer membrane was evaluated by measuring disruption of mitochondrial transmembrane potential. For this assay, 10^5 A549 cells/mL were seeded in complete medium in flat‐bottom, 12‐well plates (1 mL/well) and allowed to attach for 24 h prior to addition of compounds. Cells were treated for 48 h with compound 4 at 150 μM in duplicate. Then, they were trypsinised, resuspended in 500 μl of a mixture of complete medium and 60 nM of the tetramethilrhodamine ethyl ester (TMRE) probe and incubated at 37 °C in the dark for 20 min. Finally, a total of 10 000 cells were acquired on a FACSCalibur flow cytometer (BD Biosciences) and data were analysed using the aforementioned software.

ECFCs = experiment: In vitro tube formation (angiogenic activity) assay; type: cell-based, human; conditions: 0.25 μM, 20 h, ucb- and apb-ECFCs
Procedure: In vitro tube formation assay is a highly informative test to probe angiogenic ability of endothelial cells.[55] This observation could be the basis to consider their potential antiangiogenic activity and develop complementary assays in more physiologically relevant models. […] The mechanisms involved in this effect deserve further research.
Tube formation assay: Endothelial cells (10 000 cell/well) suspended in cell culture medium containing each compound at 0.25 μM or vehicle (DMSO) were seeded over Cultrex® Reduced Growth Factor Basement Membrane Matrix (Trevigen) gelled (37 °C for 30 min) in wells of μ‐Slide Angiogenesis coverslips (ibidi). DMSO concentration in the medium was below 0.5 %. Cells were then incubated for a 20 h period with the treatments. Images were acquired with a Moticam 3 digital camera system (Motic) through a CK40 inverted microscope (Olympus) using a 10x objective.

ucb‐ECFCs [4] = experiment: Crystal violet cell viability assay in ucb-ECFCs; type: cell-based, human; conditions: 24 h
Procedure: (§1) Effects on the cell viability related to compounds 1, 2 and 4 were analysed by crystal violet assays in ucb‐ECFCs and apb‐ECFCs. Both kinds of cells show a dose‐dependent sensitivity to the complexes after 24 h of treatment (Figure S30). IC50 values were on the range 1.1‐3.6 μM, ucb‐ECFCs being more sensitive than apb‐ECFCs to the compounds (Table 3), which could be associated to the increased proliferative activity of the ucb‐ECFCs.
(§2) Endothelial colony forming cells (ECFC) were isolated from umbilical cord blood from healthy births but unsuitable for transplantation (ucb‐ECFCs), or from peripheral blood of adult healthy donors (apb‐ECFCs) following the method described by Ingram et al.[57] with minor modifications. […]
(§3) For ECFCs cell viability determination, crystal violet assays were performed. […] Estimation of cell density was achieved by solubilisation of cell‐retained crystal violet with 10 % acetic acid solution and absorbance measurement at 540 nm in a Synergy HD system (BioTek). Data were analysed with SAIC50 v1.5.10 (http://gauss.inf.um.es:8080/IC50/) using the four‐parameter logistic function to calculate IC50 values according to Sebaugh et al.[58]

ucb‐ECFCs [5] = experiment: Annexin V-FITC/PI apoptosis determination in ucb-ECFCs; type: cell-based, human; conditions: 4 μM, 3 h
Procedure: (§4) An apoptosis determination test was performed under acute conditions, that is, incubation for a short period of time (3 h) and high concentration of complexes (4 μM; Table 4). A different response was observed regarding the origin of the ECFCs. While the cytotoxic effect on ucb‐ECFCs was similar for all complexes (ca. 20 %), mortality levels of 50 % were achieved on apb‐ECFCs with complexes 1 and 4. On the contrary, complex 2 appeared to be no toxic under these conditions.
(§5) For apoptosis assessment on ECFCs cells exposed to 1, 2 and 4 complexes, an Annexin V apoptosis detection kit (Immunostep), with FITC‐conjugated Annexin V and propidium iodide (PI), was used. Cells were incubated during 3 h with 1, 2 and 4 at 4 μM, gently detached from cell culture surface with Accutase (Corning) and resuspended in D‐PBS, and stained with FITC‐conjugated annexin V and PI according to manufacturer instructions. Data were acquired using a Gallios Flow Cytometer (Beckman Coulter), and Kaluza v2.1 (Beckman Coulter) software was used for data analysis.

apb‐ECFCs [6] = experiment: Annexin V-FITC/PI apoptosis determination in apb-ECFCs; type: cell-based, human; conditions: 4 μM, 3 h; for Early apoptotic / Late apoptotic / Necrotic / Viable: apb ECFCs; for Mortality level: apb‐ECFCs
Procedure: as §4, §5

[7] = system: A549 lung carcinoma cells; experiment: MTT-reduction cell viability assay in A549 cells; type: cell-based, human; conditions: 24 h incubation
Procedure: In vitro bioactivity of complexes 1 to 4 as well as their dimer precursor was determined by MTT‐reduction assays in A549 lung carcinoma cells (Table 2). […] Cells show an increased sensitivity to the heterobimetallic species bearing a phosphine or a thiocytosine group as gold ancillary ligand, complexes 2 and 4 respectively. The higher balance of the lipo‐ vs hydrophilicity of triphenylphosphine[35] of complex 2, or the bio‐friendly nature of the thiocytosine ancillary ligand[36, 37] in the case of complex 4 might promote an increase of the cell permeabilisation and thus display a greater antiproliferative activity.
Cell culture: A549 (human lung carcinoma) cell line (from ATCC, USA) was routinely cultured in high glucose DMEM medium supplemented with 5 % foetal bovine serum (FBS), L‐glutamine and penicillin/streptomycin (hereafter, complete medium).
Cell viability assays : The MTT‐reduction assay was used to analyse cell metabolic activity as an indicator for cell sensitivity to the complexes in A549 cell line. 10^5 cells/mL were seeded in complete medium in flat‐bottom, 96‐well plates (100 μL/well) and allowed to attach for 24 h prior to addition of compounds. The complexes were dissolved in DMSO and added to cells in concentrations ranging from 0.5 to 50 μM in quadruplicate. Cells were incubated with our compounds for 24 h and then 10 μL of MTT (5 mg mL^−1 in PBS) were added to each well and plates were incubated for 2 h at 37 °C. Finally, culture medium was removed and DMSO (100 μL/well) was added to dissolve the formazan crystals. The optical density was measured at 550 nm using a 96‐well multiscanner autoreader (ELISA) and IC50 was calculated. Each compound was analysed at least in three independent experiments.

apb‐ECFCs [8] = experiment: Crystal violet cell viability assay in apb-ECFCs; type: cell-based, human; conditions: 24 h
Procedure: as §1, §2, §3

[9] = system: A549 lung carcinoma cells; conditions: cited from earlier work

F[P-](F)(F)(F)(F)F.c1ccc([P+]2(c3ccccc3)C[P+](c3ccccc3)(c3ccccc3)[Ir-3]234([c]2ccccc2-c2cccc[n+]23)[c]2ccccc2-c2cccc[n+]24)cc1 [Complex 1, [Ir(ppy)2(dppm)]PF6]
Cell death mechanism (effect of pan-caspase inhibitor Z-VAD-fmk) (A549 cells [1]): caspase‐independent cell death mechanism
ROS generation (A549 cells [2]): dose‐dependent increase in the generation of ROS
Disruption of mitochondrial transmembrane potential (TMRE staining) (A549 cells [3]): complete disruption of mitochondrial transmembrane potential
Tube formation activity of ECFCs on Cultrex matrix (ECFCs): reduced although not completely impaired
IC50 (ucb‐ECFCs [4]): 1.16 µM
Early apoptotic (ucb‐ECFCs [5]): 1.12%
Late apoptotic (ucb‐ECFCs [5]): 21.81%
Necrotic (ucb‐ECFCs [5]): 3.96%
Viable (ucb‐ECFCs [5]): 73.10%
Early apoptotic (apb‐ECFCs [6]): 8.30%
Late apoptotic (apb‐ECFCs [6]): 51.93%
Necrotic (apb‐ECFCs [6]): 9.02%
Viable (apb‐ECFCs [6]): 30.75%
Mortality level (apb‐ECFCs [6]): 50%
IC50 [7]: 1 ± 0.08 µM
IC50 (apb‐ECFCs [8]): 2.71 µM

F[P-](F)(F)(F)(F)F.c1ccc([P+]([Au-][CH]2[P+](c3ccccc3)(c3ccccc3)[Ir-3]34([c]5ccccc5-c5cccc[n+]53)([c]3ccccc3-c3cccc[n+]34)[P+]2(c2ccccc2)c2ccccc2)(c2ccccc2)c2ccccc2)cc1 [Complex 2]
Tube formation activity of ECFCs on Cultrex matrix (ECFCs): reduced although not completely impaired
IC50 (ucb‐ECFCs [4]): 2.63 µM
Early apoptotic (ucb‐ECFCs [5]): 0.93%
Late apoptotic (ucb‐ECFCs [5]): 17.24%
Necrotic (ucb‐ECFCs [5]): 5.01%
Viable (ucb‐ECFCs [5]): 76.82%
Early apoptotic (apb‐ECFCs [6]): 9.22%
Late apoptotic (apb‐ECFCs [6]): 8.40%
Necrotic (apb‐ECFCs [6]): 0.14%
Viable (apb‐ECFCs [6]): 82.25%
Mortality level (apb‐ECFCs [6]): no toxic
IC50 [7]: 0.8 ± 0.06 µM
IC50 (apb‐ECFCs [8]): 3.52 µM

[Cl][AuH][CH]1[P+](c2ccccc2)(c2ccccc2)[Ir-3]23([c]4ccccc4-c4cccc[n+]42)([c]2ccccc2-c2cccc[n+]23)[P+]1(c1ccccc1)c1ccccc1 [Complex 3]
IC50 [7]: 1.7 ± 0.08 µM

N.N.[Cl][Pt][Cl] [cisplatin, reference compound]
IC50 [9]: 20.8 ± 2.1 µM

c1cc[c]2c(c1)-c1cccc[n+]1[Ir-3]213([Cl+][Ir-3]24([Cl+]1)([c]1ccccc1-c1cccc[n+]12)[c]1ccccc1-c1cccc[n+]14)[c]1ccccc1-c1cccc[n+]13 [dimer, [Ir(ppy)2(μ‐Cl)]2]
IC50 [7]: > 50 µM
